{"source": "patent US20220233512A1", "about": "“INHIBITING AN IMMUNE RESPONSE MEDIATED BY ONE OR MORE OF TLR2, RAGE, CCR5, CXCR4 AND CD4” (priority 2020, published 2022)", "biological_target": "T1, mu opiate receptor (MOR) (Rattus norvegicus, UniProt P33535)", "T1 construct": "from tissue; host or cells: striatum (membrane preparation)", "assay": "MOR agonist activity using [35S]GTPgS binding assay in striatal membranes", "assay_type": "biochemical", "set-up": "MOR agonist activity (preliminary study): unit of the concentration uncertain", "conditions": "for MOR agonist activity (preliminary study): average of two runs", "summary_of_the_method": "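Rat striatal membranes incubated 5 min at 30 °C in pH 7.5 HEPES buffer with 100 mM NaCl, 1 mM MgCl2 and 0.5 nM [35S]GTPgS, then 5 min with compound. Gαo-bound [35S]GTPgS isolated by immunoprecipitation and counted by liquid scintillation.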", "key": {"[1]": {"conditions": "0.1 μM compound as agonist, Series C-2 table"}, "[2]": {"conditions": "1 μM compound as agonist, Series C-2 table"}, "[3]": {"conditions": "0.1 μM compound as agonist, Series C-1 table"}, "[4]": {"conditions": "1 μM compound as agonist, Series C-1 table"}}, "data": [{"compound": "Cc1ccc(S(=O)(=O)N2CCOC23CCN(CC2CC2)CC3)cc1", "note": "[Compound C0134M]", "values": [{"measurement": "MOR agonist activity ([35S]GTPgS binding to Gao)", "setting": "[1]", "value": 158.5, "unit": "%"}, {"measurement": "MOR agonist activity ([35S]GTPgS binding to Gao)", "setting": "1 μM + BFNA, Series C-2 table", "value": 46.6, "unit": "%"}, {"measurement": "MOR agonist activity ([35S]GTPgS binding to Gao)", "setting": "[2]", "value": 207.3, "unit": "%"}, {"measurement": "MOR agonist activity (preliminary study)", "setting": "1 mM + bNFA", "value": 53.2, "unit": "%"}, {"measurement": "MOR agonist activity (preliminary study)", "setting": "0.1 (unit uncertain) compound as agonist", "value": 150.7, "unit": "%"}, {"measurement": "MOR agonist activity (preliminary study)", "setting": "1 (unit uncertain) compound as agonist", "value": 224.0, "unit": "%"}]}, {"compound": "CCc1ccc(S(=O)(=O)N2CCOC23CCN(CC2CC2)CC3)cc1", "note": "[Compound C0135M]", "values": [{"measurement": "MOR agonist activity ([35S]GTPgS binding to Gao)", "setting": "[1]", "value": 161.3, "unit": "%"}, {"measurement": "MOR agonist activity ([35S]GTPgS binding to Gao)", "setting": "1 μM + BFNA, Series C-2 table", "value": 113.3, "unit": "%"}, {"measurement": "MOR agonist activity ([35S]GTPgS binding to Gao)", "setting": "[2]", "value": 310.1, "unit": "%"}]}, {"compound": "O=C1CN(Cc2ccccc2)C2(CCN(S(=O)(=O)c3cc(Cl)cc(Cl)c3O)CC2)N1", "note": "[Compound C0138M]", "values": [{"measurement": "MOR agonist activity ([35S]GTPgS binding to Gao)", "setting": "[3]", "value": 126.9, "unit": "%"}, {"measurement": "MOR agonist activity ([35S]GTPgS binding to Gao)", "setting": "1 μM + BFNA, Series C-1 table", "value": 51.5, "unit": "%"}, {"measurement": "MOR agonist activity ([35S]GTPgS binding to Gao)", "setting": "[4]", "value": 183.9, "unit": "%"}]}, {"compound": "O=C1CN(Cc2ccccc2)C2(CCN(S(=O)(=O)c3cc(Cl)c(O)c(Cl)c3)CC2)N1", "note": "[Compound C0139M]", "values": [{"measurement": "MOR agonist activity ([35S]GTPgS binding to Gao)", "setting": "[3]", "value": 156.1, "unit": "%"}, {"measurement": "MOR agonist activity ([35S]GTPgS binding to Gao)", "setting": "1 μM + BFNA, Series C-1 table", "value": 51.0, "unit": "%"}, {"measurement": "MOR agonist activity ([35S]GTPgS binding to Gao)", "setting": "[4]", "value": 206.6, "unit": "%"}]}, {"compound": "O=S(=O)(c1ccc2ccccc2c1)N1CCC2(CC1)OCCN2S(=O)(=O)c1ccc2ccccc2c1", "note": "[Compound C0140M]", "values": [{"measurement": "MOR agonist activity ([35S]GTPgS binding to Gao)", "setting": "[3]", "value": 126.1, "unit": "%"}, {"measurement": "MOR agonist activity ([35S]GTPgS binding to Gao)", "setting": "1 μM + BFNA, Series C-1 table", "value": 83.0, "unit": "%"}, {"measurement": "MOR agonist activity ([35S]GTPgS binding to Gao)", "setting": "[4]", "value": 215.4, "unit": "%"}]}, {"compound": "O=S(=O)(c1cccs1)N1CCC2(CC1)OCCN2S(=O)(=O)c1cccs1", "note": "[Compound C0141M]", "values": [{"measurement": "MOR agonist activity ([35S]GTPgS binding to Gao)", "setting": "[3]", "value": 161.5, "unit": "%"}, {"measurement": "MOR agonist activity ([35S]GTPgS binding to Gao)", "setting": "1 μM + BFNA, Series C-1 table", "value": 47.9, "unit": "%"}, {"measurement": "MOR agonist activity ([35S]GTPgS binding to Gao)", "setting": "[4]", "value": 213.9, "unit": "%"}]}, {"compound": "COc1ccc(S(=O)(=O)N2CCC3(CC2)NCCC(=O)N3)cc1", "note": "[Compound C0142M]", "values": [{"measurement": "MOR agonist activity ([35S]GTPgS binding to Gao)", "setting": "[1]", "value": 143.7, "unit": "%"}, {"measurement": "MOR agonist activity ([35S]GTPgS binding to Gao)", "setting": "1 μM + BFNA, Series C-2 table", "value": 98.7, "unit": "%"}, {"measurement": "MOR agonist activity ([35S]GTPgS binding to Gao)", "setting": "[2]", "value": 192.5, "unit": "%"}]}, {"compound": "O=S(=O)(c1cccc2cccnc12)N1CCC2(CC1)OCCN2S(=O)(=O)c1cccc2cccnc12", "note": "[Compound C0143M]", "values": [{"measurement": "MOR agonist activity ([35S]GTPgS binding to Gao)", "setting": "[3]", "value": 81.0, "unit": "%"}, {"measurement": "MOR agonist activity ([35S]GTPgS binding to Gao)", "setting": "[1]", "value": 81.0, "unit": "%"}, {"measurement": "MOR agonist activity ([35S]GTPgS binding to Gao)", "setting": "1 μM + BFNA, Series C-1 table", "value": 86.5, "unit": "%"}, {"measurement": "MOR agonist activity ([35S]GTPgS binding to Gao)", "setting": "1 μM + BFNA, Series C-2 table", "value": 86.5, "unit": "%"}, {"measurement": "MOR agonist activity ([35S]GTPgS binding to Gao)", "setting": "[4]", "value": 193.3, "unit": "%"}, {"measurement": "MOR agonist activity ([35S]GTPgS binding to Gao)", "setting": "[2]", "value": 193.3, "unit": "%"}]}, {"compound": "COc1ccc(S(=O)(=O)N2CCC3(NCCO3)C3CCCCC32)cc1", "note": "(stereo not drawn) [Compound C0144M-2]", "values": [{"measurement": "MOR agonist activity ([35S]GTPgS binding to Gao)", "setting": "[1]", "value": 186.3, "unit": "%"}, {"measurement": "MOR agonist activity ([35S]GTPgS binding to Gao)", "setting": "1 μM + BFNA, Series C-2 table", "value": 125.9, "unit": "%"}, {"measurement": "MOR agonist activity ([35S]GTPgS binding to Gao)", "setting": "[2]", "value": 295.9, "unit": "%"}]}, {"compound": "COc1ccc(S(=O)(=O)N2CCC3(OCCN3S(=O)(=O)c3ccc(OC)cc3)C3CCCCC32)cc1", "note": "(stereo not drawn) [Compound C0144M]", "values": [{"measurement": "MOR agonist activity ([35S]GTPgS binding to Gao)", "setting": "[3]", "value": 186.3, "unit": "%"}, {"measurement": "MOR agonist activity ([35S]GTPgS binding to Gao)", "setting": "1 μM + BFNA, Series C-1 table", "value": 125.9, "unit": "%"}, {"measurement": "MOR agonist activity ([35S]GTPgS binding to Gao)", "setting": "[4]", "value": 295.9, "unit": "%"}]}, {"compound": "COc1ccc(S(=O)(=O)N2CCOC23CCCNC3)cc1", "note": "(stereo not drawn) [Compound C0145M-3]", "values": [{"measurement": "MOR agonist activity ([35S]GTPgS binding to Gao)", "setting": "[1]", "value": 193.0, "unit": "%"}, {"measurement": "MOR agonist activity ([35S]GTPgS binding to Gao)", "setting": "1 μM + BFNA, Series C-2 table", "value": 87.0, "unit": "%"}, {"measurement": "MOR agonist activity ([35S]GTPgS binding to Gao)", "setting": "[2]", "value": 289.2, "unit": "%"}]}, {"compound": "COc1ccc(S(=O)(=O)N2CCCC3(C2)OCCN3S(=O)(=O)c2ccc(OC)cc2)cc1", "note": "(stereo not drawn) [Compound C0145M]", "values": [{"measurement": "MOR agonist activity ([35S]GTPgS binding to Gao)", "setting": "[3]", "value": 193.0, "unit": "%"}, {"measurement": "MOR agonist activity ([35S]GTPgS binding to Gao)", "setting": "1 μM + BFNA, Series C-1 table", "value": 87.0, "unit": "%"}, {"measurement": "MOR agonist activity ([35S]GTPgS binding to Gao)", "setting": "[4]", "value": 289.2, "unit": "%"}]}, {"compound": "O=C1CNC2(CCN(S(=O)(=O)c3ccc(O)cc3)CC2)N1Cc1ccccc1", "note": "[Compound C0148M]", "values": [{"measurement": "MOR agonist activity ([35S]GTPgS binding to Gao)", "setting": "[3]", "value": 181.3, "unit": "%"}, {"measurement": "MOR agonist activity ([35S]GTPgS binding to Gao)", "setting": "1 μM + BFNA, Series C-1 table", "value": 87.6, "unit": "%"}, {"measurement": "MOR agonist activity ([35S]GTPgS binding to Gao)", "setting": "[4]", "value": 360.6, "unit": "%"}, {"measurement": "% DAMGO + BFNA", "setting": "relative to DAMGO + BFNA, Series C-1 table", "value": 95.9, "unit": "%"}, {"measurement": "% DAMGO (0.1 μM)", "setting": "relative to DAMGO at 0.1 μM, Series C-1 table", "value": 105.4, "unit": "%"}, {"measurement": "% DAMGO (1 μM)", "setting": "relative to DAMGO at 1 μM, Series C-1 table", "value": 110.6, "unit": "%"}]}, {"compound": "O=S(=O)(c1ccccc1Oc1ccccc1)N1CCC2(CC1)NCCO2", "note": "[Compound C0149M-2]", "values": [{"measurement": "MOR agonist activity ([35S]GTPgS binding to Gao)", "setting": "[1]", "value": 209.8, "unit": "%"}, {"measurement": "MOR agonist activity ([35S]GTPgS binding to Gao)", "setting": "1 μM + BFNA, Series C-2 table", "value": 93.4, "unit": "%"}, {"measurement": "MOR agonist activity ([35S]GTPgS binding to Gao)", "setting": "[2]", "value": 406.7, "unit": "%"}]}, {"compound": "O=S(=O)(c1ccc(Oc2ccccc2)cc1)N1CCC2(CC1)OCCN2S(=O)(=O)c1ccc(Oc2ccccc2)cc1", "note": "[Compound C0149M]", "values": [{"measurement": "MOR agonist activity ([35S]GTPgS binding to Gao)", "setting": "[3]", "value": 209.8, "unit": "%"}, {"measurement": "MOR agonist activity ([35S]GTPgS binding to Gao)", "setting": "1 μM + BFNA, Series C-1 table", "value": 93.4, "unit": "%"}, {"measurement": "MOR agonist activity ([35S]GTPgS binding to Gao)", "setting": "[4]", "value": 406.7, "unit": "%"}]}, {"compound": "O=S(=O)(c1csc2ccccc12)N1CCC2(CC1)OCCN2S(=O)(=O)c1csc2ccccc12", "note": "[Compound C0150M]", "values": [{"measurement": "MOR agonist activity ([35S]GTPgS binding to Gao)", "setting": "[3]", "value": 167.1, "unit": "%"}, {"measurement": "MOR agonist activity ([35S]GTPgS binding to Gao)", "setting": "1 μM + BFNA, Series C-1 table", "value": 93.4, "unit": "%"}, {"measurement": "MOR agonist activity ([35S]GTPgS binding to Gao)", "setting": "[4]", "value": 423.1, "unit": "%"}]}, {"compound": "COc1ccc(NC(=O)N2CCC3(CC2)NCCO3)cc1", "note": "[Compound C0151M-2]", "values": [{"measurement": "MOR agonist activity ([35S]GTPgS binding to Gao)", "setting": "[1]", "value": 346.8, "unit": "%"}, {"measurement": "MOR agonist activity ([35S]GTPgS binding to Gao)", "setting": "1 μM + BFNA, Series C-2 table", "value": 212.8, "unit": "%"}, {"measurement": "MOR agonist activity ([35S]GTPgS binding to Gao)", "setting": "[2]", "value": 397.6, "unit": "%"}]}, {"compound": "COc1ccc(NC(=O)N2CCC3(CC2)OCCN3C(=O)Nc2ccc(OC)cc2)cc1", "note": "[Compound C0151M]", "values": [{"measurement": "MOR agonist activity ([35S]GTPgS binding to Gao)", "setting": "[3]", "value": 346.8, "unit": "%"}, {"measurement": "MOR agonist activity ([35S]GTPgS binding to Gao)", "setting": "1 μM + BFNA, Series C-1 table", "value": 212.8, "unit": "%"}, {"measurement": "MOR agonist activity ([35S]GTPgS binding to Gao)", "setting": "[4]", "value": 397.6, "unit": "%"}]}]}
